Assay results reported in ChEMBL document CHEMBL3885881, “DrugMatrix”.

Species: Rattus norvegicus
Assay: DrugMatrix - Regimen: Daily Repeat
Type: toxicity, organism-based, Sprague-Dawley
Parameters: regimen Daily Repeat, gender Male, age 6-8 weeks
Conditions: in vivo, po, route oral GAVAGE, vehicle 100 % WATER; for ABSOLUTE BASOPHIL / ABSOLUTE EOSINOPHIL / ABSOLUTE LYMPHOCYTE / ABSOLUTE MONOCYTE / ABSOLUTE SEGMENTED NEUTROPHIL / BASOPHIL / EOSINOPHIL / ERYTHROCYTE COUNT / HEMATOCRIT / HEMOGLOBIN / LEUKOCYTE COUNT / LYMPHOCYTE / MEAN CORPUSCULAR HEMOGLOBIN / MEAN CORPUSCULAR HEMOGLOBIN CONCENTRATION / MEAN CORPUSCULAR VOLUME / MONOCYTE / NEUTROPHIL / NUCLEATED RED BLOOD CELLS / PLATELET COUNT: tissue Blood; for ALANINE AMINOTRANSFERASE / ALBUMIN / ALKALINE PHOSPHATASE / ASPARTATE AMINOTRANSFERASE / BLOOD UREA NITROGEN / CARBON DIOXIDE / CHLORIDE / CHOLESTEROL / CREATINE PHOSPHOKINASE / CREATININE / GLUCOSE / LACTATE DEHYDROGENASE / LIPASE / PHOSPHORUS / POTASSIUM / SODIUM / TOTAL BILIRUBIN / TOTAL PROTEIN / URIC ACID: tissue Plasma
[1] = 39 mg/kg, 120 h, dose level Low, time 5 day
[2] = 150 mg/kg, 72 h, dose level High, time 3 day
[3] = 150 mg/kg, 120 h, dose level High, time 5 day

C[C@]12Cc3c[nH]nc3C[C@@H]1CC[C@@H]1[C@@H]2CC[C@@]2(C)[C@H]1CC[C@]2(C)O [STANOZOLOL]
ABSOLUTE BASOPHIL [1]: 0 CELLS/uL
ABSOLUTE EOSINOPHIL [1]: 55.33 CELLS/uL
ABSOLUTE LYMPHOCYTE [1]: 11411 CELLS/uL
ABSOLUTE MONOCYTE [1]: 142 CELLS/uL
ABSOLUTE SEGMENTED NEUTROPHIL [1]: 1025 CELLS/uL
BASOPHIL [1]: 0%
EOSINOPHIL [1]: 0.33%
ERYTHROCYTE COUNT [1]: 5.64 x10E6/uL
HEMATOCRIT [1]: 35.63%
HEMOGLOBIN [1]: 13.63 G/DL
LEUKOCYTE COUNT [1]: 12.63 x10E3/uL
LYMPHOCYTE [1]: 90.33%
MEAN CORPUSCULAR HEMOGLOBIN [1]: 24.33 pg
MEAN CORPUSCULAR HEMOGLOBIN CONCENTRATION [1]: 38.33 G/DL
MEAN CORPUSCULAR VOLUME [1]: 63.43 fL
MONOCYTE [1]: 1.33%
NEUTROPHIL [1]: 8%
NUCLEATED RED BLOOD CELLS [1]: 0.67 /100WBC
PLATELET COUNT [1]: 1199.33 x10E3/uL
ALANINE AMINOTRANSFERASE [1]: 55.67 u/L
ALBUMIN [1]: 3.87 G/DL
ALKALINE PHOSPHATASE [1]: 492.33 u/L
ASPARTATE AMINOTRANSFERASE [1]: 81.67 u/L
BLOOD UREA NITROGEN [1]: 13.33 mg/dL
CARBON DIOXIDE [1]: 32.67 mmol/L
CHLORIDE [1]: 98.67 MEQ/L
CHOLESTEROL [1]: 35 mg/dL
CREATINE PHOSPHOKINASE [1]: 259.67 u/L
CREATININE [1]: 0.16 mg/dL
GLUCOSE [1]: 144 mg/dL
LACTATE DEHYDROGENASE [1]: 113 u/L
LIPASE [1]: 8 u/L
PHOSPHORUS [1]: 10.33 mg/dL
POTASSIUM [1]: 5.69 MEQ/L
SODIUM [1]: 144.47 MEQ/L
TOTAL BILIRUBIN [1]: 0.2 mg/dL
TOTAL PROTEIN [1]: 6.07 G/DL
URIC ACID [1]: 0.33 mg/dL
ABSOLUTE BASOPHIL [2]: 0 CELLS/uL
ABSOLUTE EOSINOPHIL [2]: 39.67 CELLS/uL
ABSOLUTE LYMPHOCYTE [2]: 9030.67 CELLS/uL
ABSOLUTE MONOCYTE [2]: 107.33 CELLS/uL
ABSOLUTE SEGMENTED NEUTROPHIL [2]: 755.67 CELLS/uL
BASOPHIL [2]: 0%
EOSINOPHIL [2]: 0.33%
ERYTHROCYTE COUNT [2]: 6.43 x10E6/uL
HEMATOCRIT [2]: 39.27%
HEMOGLOBIN [2]: 14.53 G/DL
LEUKOCYTE COUNT [2]: 9.93 x10E3/uL
LYMPHOCYTE [2]: 91%
MEAN CORPUSCULAR HEMOGLOBIN [2]: 22.63 pg
MEAN CORPUSCULAR HEMOGLOBIN CONCENTRATION [2]: 37.07 G/DL
MEAN CORPUSCULAR VOLUME [2]: 61.07 fL
MONOCYTE [2]: 1%
NEUTROPHIL [2]: 7.67%
NUCLEATED RED BLOOD CELLS [2]: 0.33 /100WBC
PLATELET COUNT [2]: 951 x10E3/uL
ALANINE AMINOTRANSFERASE [2]: 74 u/L
ALBUMIN [2]: 4.1 G/DL
ALKALINE PHOSPHATASE [2]: 493.67 u/L
ASPARTATE AMINOTRANSFERASE [2]: 138.33 u/L
BLOOD UREA NITROGEN [2]: 12.67 mg/dL
CARBON DIOXIDE [2]: 34.33 mmol/L
CHLORIDE [2]: 96.5 MEQ/L
CHOLESTEROL [2]: 46.67 mg/dL
CREATINE PHOSPHOKINASE [2]: 1177 u/L
CREATININE [2]: 0.14 mg/dL
GLUCOSE [2]: 134.33 mg/dL
LACTATE DEHYDROGENASE [2]: 200 u/L
LIPASE [2]: 11 u/L
PHOSPHORUS [2]: 11.53 mg/dL
POTASSIUM [2]: 6.12 MEQ/L
SODIUM [2]: 142.35 MEQ/L
TOTAL BILIRUBIN [2]: 0.33 mg/dL
TOTAL PROTEIN [2]: 6.33 G/DL
URIC ACID [2]: 0.5 mg/dL
ABSOLUTE BASOPHIL [3]: 0 CELLS/uL
ABSOLUTE EOSINOPHIL [3]: 31.33 CELLS/uL
ABSOLUTE LYMPHOCYTE [3]: 9499.67 CELLS/uL
ABSOLUTE MONOCYTE [3]: 0 CELLS/uL
ABSOLUTE SEGMENTED NEUTROPHIL [3]: 1135.67 CELLS/uL
BASOPHIL [3]: 0%
EOSINOPHIL [3]: 0.33%
ERYTHROCYTE COUNT [3]: 6.28 x10E6/uL
HEMATOCRIT [3]: 37.87%
HEMOGLOBIN [3]: 14.4 G/DL
LEUKOCYTE COUNT [3]: 10.67 x10E3/uL
LYMPHOCYTE [3]: 88.67%
MEAN CORPUSCULAR HEMOGLOBIN [3]: 22.93 pg
MEAN CORPUSCULAR HEMOGLOBIN CONCENTRATION [3]: 38.03 G/DL
MEAN CORPUSCULAR VOLUME [3]: 60.33 fL
MONOCYTE [3]: 0%
NEUTROPHIL [3]: 11%
NUCLEATED RED BLOOD CELLS [3]: 0 /100WBC
PLATELET COUNT [3]: 1393.33 x10E3/uL
ALANINE AMINOTRANSFERASE [3]: 46 u/L
ALBUMIN [3]: 3.87 G/DL
ALKALINE PHOSPHATASE [3]: 445.33 u/L
ASPARTATE AMINOTRANSFERASE [3]: 64.67 u/L
BLOOD UREA NITROGEN [3]: 16 mg/dL
CARBON DIOXIDE [3]: 32.33 mmol/L
CHLORIDE [3]: 99 MEQ/L
CHOLESTEROL [3]: 12.33 mg/dL
CREATINE PHOSPHOKINASE [3]: 238.67 u/L
CREATININE [3]: 0.14 mg/dL
GLUCOSE [3]: 131.33 mg/dL
LACTATE DEHYDROGENASE [3]: 117.33 u/L
LIPASE [3]: 7.67 u/L
PHOSPHORUS [3]: 11.13 mg/dL
POTASSIUM [3]: 5.01 MEQ/L
SODIUM [3]: 144.1 MEQ/L
TOTAL BILIRUBIN [3]: 0.1 mg/dL
TOTAL PROTEIN [3]: 5.8 G/DL
URIC ACID [3]: 0.3 mg/dL
